From patent US12377060B2, “Methods and compositions for preventing or treating tissue calcification” (Epizon Pharma, Inc., priority 2018, dated 2025)

Legend:
[1] = system: osteocalcin; settings: 100-200 μg/d for 4 to 12 weeks; cited from earlier work
[2] = system: ESRD subjects on stable hemodialysis; assay: Example 1: contemplated administration of MK-7 and/or MKH2-7 to ESRD subjects on stable hemodialysis, biomarkers of tissue calcification; type: in vivo, human; settings: 10 mg, 25 mg or 50 mg once daily orally
Protocol: This example describes the administration of MK-7 and/or MKH2-7 to a subject with ESRD and/or on stable hemodialysis. It is contemplated that administration of MK-7 and/or MKH2-7 will result in a change in aortic compliance (via plethysmography), vascular calcification and certain biomarker levels indicative of slowing the progression of, arresting, or reversing tissue calcification.
ESRD subjects on stable hemodialysis orally receive MK-7 and/or MKH2-7 at 10 mg, 25 mg or 50 mg once daily for least 2 weeks, 4 weeks, 6 weeks, 8 weeks, 3 months, 6 months, 1 year, or indefinitely. The dosage form is a 10 mg or 25 mg soft-gel capsule. Two 25 mg capsules are administered once daily to the 50 mg dosage cohort.
Coronary arterial calcium scores (CAC) are used to estimate the extent of calcification of thoracic arteries. A high CAC score is indicative of calcification, and treatment has the aim of arresting the long term increase in CAC score, or reversing it, or slowing the rate of increase. Aortic plethysmography also is used to measure arterial compliance, which decreases as calcification increases. Pulse wave velocity (PWV) also is measured to assess arterial compliance. The foregoing measures are useful in estimating the utility of treatments intended to prevent, slow the progression of, arrest or reverse vascular calcification. These measurements are used pre- and post-treatment with MK-7 and/or MKH2-7 to assess treatment value.
Further, several biomarkers are assessed to determine the efficacy of MK-7 and/or MKH2-7 at the three dose levels. Exemplary biomarkers include PIVKA-II; uncarboxylated and total Matrix Gla Protein (MGP); uncarboxylated, carboxylated and total osteocalcin protein; uncarboxylated, carboxylated and total Protein C, osteoprotegerin, Fetuin A, and hs-CRP. Blood samples are obtained to measure the biomarkers, most conveniently during patient visits for hemodialysis.
It is contemplated that administration of MK-7 and/or MKH2-7 can result in (i) an increase in […], osteoprotegerin, or Fetuin A, which is indicative of slowing the progression of, arresting or reversing tissue calcification, (ii) a decrease in uncarboxylated MGP, uncarboxylated osteocalcin, and/or uncarboxylated Protein C, which is indicative of slowing the progression of, arresting or reversing tissue calcification, and/or (iii) a decrease in hs-CRP, which is indicative of slowing the progression of, arresting or reversing tissue calcification and/or reduced inflammation.
It is contemplated that, following the daily administration of 10 mg, 25 mg or 50 mg MK-7 and/or MKH2-7, at least one of PIVKA-II, under-carboxylated Matrix Gla Protein (MGP), uncarboxylated osteocalcin protein, uncarboxylated Protein C, osteoprotegerin, Fetuin A, and hs-CRP will show a change indicative of slowing the progression of, arresting or reversing tissue calcification.

| Compound | ratio of carboxylated to undercarboxylated osteocalcin [1] | change in Fetuin A [2] | change in hs-CRP [2] | change in osteoprotegerin [2] | change in uncarboxylated MGP [2] | change in uncarboxylated Protein C [2] | change in uncarboxylated osteocalcin [2] |
| --- | --- | --- | --- | --- | --- | --- | --- |
| CC(C)=CCC/C(C)=C/CC/C(C)=C/CC/C(C)=C/CC/C(C)=C/CC/C(C)=C/CC/C(C)=C/CC1=C(C)C(=O)c2ccccc2C1=O [MK-7, 2-[(2E,6E,10E,14E,18E,22E)-3,7,11,15,19,23,27-heptamethyloctacosa-2,6,10,14,18,22,26-heptaenyl]-3-methylnaphthalene-1,4-dione] | significantly and in a dose-dependent manner | increase | decrease | increase | decrease | decrease | decrease |
| CC(C)=CCC/C(C)=C/CC/C(C)=C/CC/C(C)=C/CC/C(C)=C/CC/C(C)=C/CC/C(C)=C/Cc1c(C)c(O)c2ccccc2c1O [MKH2-7, 2-[(2E,6E,10E,14E,18E,22E)-3,7,11,15,19,23,27-heptamethyloctacosa-2,6,10,14,18,22,26-heptaenyl]-3-methylnaphthalene-1,4-diol] |  | increase | decrease | increase | decrease | decrease | decrease |
